# Values joined by “and” are separate entries in the source; they are usually repeats but may differ in a detail not shown here. Identical values can stand only once.
# Key:
# [1] = tested on: Rattus norvegicus; conditions: oral
# [2] = tested on: Rattus norvegicus; conditions: for LOEL: Hershberger; for LEL: uterotrophic, duration: 3 days, Active
# [3] = reproduction developmental, gavage, F, Wistar, generation: F1, F1: body weight + F1: kidney: absolute kidney weight + F1: kidney: relative kidney weight + F1: liver: absolute liver weight + F1: liver: …
# [4] = reproduction developmental, gavage, F, Wistar, generation: P0, P0: body weight + P0: developmental toxicity
# [5] = reproduction developmental, gavage, M, Wistar, generation: F1, F1: body weight + F1: paternal toxicity
# [6] = reproduction developmental, gavage, M, Wistar, generation: P0, P0: body weight + P0: developmental toxicity
smiles,measurement,setting,value
"CC(C)(c1ccc(OP(=O)(Oc2ccccc2)Oc2ccccc2)cc1)c1ccc(OP(=O)(Oc2ccccc2)Oc2ccccc2)cc1 [2,2-Bis[4-[bis(phenoxy)phosphoryloxy]phenyl]propane]",NOEL,"[1]; acute, duration: 14 days, gavage, F, Crl:CD(SD), body weight gain + toxicity",2000 mg/kg-day
same,NOEL,"[1]; developmental, Sprague-Dawley, generation: F1, F1: embryotoxicity",1000 mg/kg-day
same,NOEL,"[1]; developmental, gavage, Crl:CD(SD), generation: F1, F1: embryotoxicity",1000 mg/kg-day
same,NOEL,"[1]; reproduction developmental, F, Sprague-Dawley, generation: P0, P0: maternal toxicity",1000 mg/kg-day
same,NOEL,"[1]; reproduction developmental, gavage, Crl:CD(SD), generation: F1, F1: fetotoxicity",1000 mg/kg-day
same,NOEL,"[1]; reproduction developmental, gavage, Crl:CD(SD), generation: F1, F1: toxicity",1000 mg/kg-day
same,NOEL,"[1]; reproduction developmental, gavage, F, Crl:CD(SD), generation: P0, P0: body weight + P0: maternal toxicity",1000 mg/kg-day
same,NOEL,"[1]; reproduction developmental, gavage, F, Crl:CD(SD), generation: P0, P0: body weight gain + P0: maternal toxicity + P0: uterus: gravid uterine weight",500 mg/kg-day
same,NOEL,"[1]; reproduction developmental, gavage, F, Crl:CD(SD), generation: P0, P0: body weight gain + P0: ovary: ovary weight + P0: toxicity",100 mg/kg-day
same,NOEL,"[1]; reproduction developmental, gavage, F, Crl:CD(SD), generation: P0, P0: body weight gain + P0: toxicity",1000 mg/kg-day
same,NOEL,"[1]; reproduction developmental, gavage, F, Crl:CD(SD), generation: P0, P0: body weight gain + P0: uterus: Gravid uterus weight",1000 mg/kg-day
same,NOEL,"[1]; reproduction developmental, gavage, F, Crl:CD(SD), generation: P0, P0: toxicity",1000 mg/kg-day
same,LOEL,[1]; [3],200 mg/kg-day
same,NOEL,[1]; [3],100 mg/kg-day
same,NOEL,"[1]; reproduction developmental, gavage, F, Wistar, generation: F1, F1: toxicity",1000 mg/kg-day
same,LOEL,[1]; [4],200 mg/kg-day
same,NOEL,[1]; [4],100 mg/kg-day
same,NOEL,"[1]; reproduction developmental, gavage, F, Wistar, generation: P0, P0: maternal toxicity",1000 mg/kg-day
same,NOEL,"[1]; reproduction developmental, gavage, F, Wistar, generation: P0, P0: toxicity",1000 mg/kg-day
same,NOEL,"[1]; reproduction developmental, gavage, M/F, Crl:CD(SD), generation: F1, F1: body weight + F1: toxicity",1000 mg/kg-day
same,NOEL,"[1]; reproduction developmental, gavage, M, Crl:CD(SD), generation: P0, P0: body weight gain + P0: kidney: kidney: absolute weight + P0: spleen: spleen weight + P0: toxicity",1000 mg/kg-day
same,LOEL,[1]; [5],200 mg/kg-day
same,NOEL,[1]; [5],100 mg/kg-day
same,NOEL,"[1]; reproduction developmental, gavage, M, Wistar, generation: F1, F1: toxicity",1000 mg/kg-day
same,LOEL,[1]; [6],200 mg/kg-day
same,NOEL,[1]; [6],100 mg/kg-day
same,NOEL,"[1]; reproduction developmental, gavage, M, Wistar, generation: P0, P0: toxicity",1000 mg/kg-day
same,NOEL,"[1]; reproduction developmental, gavage, Wistar, generation: F1, F1: developmental toxicity",1000 mg/kg-day
same,NOEL,"[1]; short-term, duration: 28 days, diet, M, Sprague-Dawley, toxicity",1860 mg/kg-day
same,NOEL,"[1]; short-term, duration: 28 days, gavage, F, Sprague-Dawley, body weight + toxicity",1000 mg/kg-day
same,NOEL,"[1]; short-term, duration: 28 days, gavage, F, Sprague-Dawley, liver: absolute liver weight + ovary: ovary weight + toxicity",1000 mg/kg-day
same,NOEL,"[1]; short-term, duration: 28 days, gavage, F, Sprague-Dawley, toxicity",1000 mg/kg-day
same,NOEL,"[1]; short-term, duration: 28 days, gavage, M, Sprague-Dawley, body weight + toxicity",1000 mg/kg-day
same,NOEL,"[1]; short-term, duration: 28 days, gavage, M, Sprague-Dawley, toxicity",1000 mg/kg-day
same,NOEL,"[1]; short-term, gavage, F, Sprague-Dawley, toxicity",1000 mg/kg-day
same,NOEL,"[1]; short-term, gavage, M, Sprague-Dawley, toxicity",1000 mg/kg-day
same,NOEL,"[1]; subchronic, duration: 90 days, gavage, F, Crj:CD, body weight + toxicity",1000 mg/kg-day
same,NOEL,"[1]; subchronic, duration: 90 days, gavage, F, Sprague-Dawley, body weight + toxicity",1000 mg/kg-day
same,NOEL,"[1]; subchronic, duration: 90 days, gavage, M, Crj:CD, body weight + toxicity",1000 mg/kg-day
same,NOEL,"[1]; subchronic, duration: 90 days, gavage, M, Sprague-Dawley, body weight + toxicity",1000 mg/kg-day
same,NOEL,"[1]; subchronic, gavage, F, Sprague-Dawley, toxicity",1000 mg/kg-day
same,NOEL,"[1]; subchronic, gavage, M, Sprague-Dawley, toxicity",1000 mg/kg-day
C[C@]12CC[C@@H]3c4ccc(OC(=O)c5ccccc5)cc4CC[C@H]3[C@@H]1CC[C@@H]2O [Estradiol benzoate],LOEL,"[2]; duration: 7 days, injection, subcutaneous, Wistar, active + Androgenic + androgenic",0.0025 mg/kg-day
CCOC(=O)c1ccc(O)cc1 [Ethylparaben],LEL,"[2]; injection, subcutaneous",180 mg/kg-day
CC(C)(C)NC(=O)[C@H]1CC[C@H]2[C@@H]3CC[C@H]4NC(=O)C=C[C@]4(C)[C@H]3CC[C@]12C [Finasteride],LOEL,"[2]; duration: 5 days, oral, gavage, Sprague-Dawley, active + Antiandrogenic + anti-androgenic + decreased age at PPS at 20mg/kg, increased at 80 mg/kg (with 7.8% increased liver wt at high …",20 mg/kg-day and 25 mg/kg-day
same,LOEL,"[2]; duration: 7 days, oral, gavage, Sprague-Dawley, active + Antiandrogenic + anti-androgenic + decreased age at PPS at 20mg/kg, increased at 80 mg/kg (with 7.8% increased liver wt at high …",20 mg/kg-day and 25 mg/kg-day
O=c1oc2cc(O)ccc2c2oc3cc(O)ccc3c12 [Coumestrol],LEL,"[2]; injection, subcutaneous",1 mg/day
Cl.O=C(c1ccc(OCCN2CCCCC2)cc1)c1c(-c2ccc(O)cc2)sc2cc(O)ccc12 [Raloxifene hydrochloride],LEL,"[2]; injection, subcutaneous",0.5 mg/kg-day

# — EPA's ToxValDB 9.5
